# Reference: patent US20080214680A1, “Application of arsenic as a cancer prevention agent” (priority 2003, published 2008)
# Columns and labels:
# [1] = test system: acute prontyelocytic leukemia cells; experiment: Chen et al.: acute treatment of leukemia cells with arsenic trioxide; format: cell-based; details: equivalent of 0.1 μmoles per liter
# Method: Bae cites a paper by Chen et at. (May 1, 1997) in his references, published more than a year before his patent filing, which recites the use of arsenic trioxide (As2O3) as an acute treatment on acute prontyelocytic leukemia cells. The treatment is effective over an exposure range of 0.5-2.0 μmoles per liter, but ineffective at 0.1 μmoles per liter. These values are equivalent to […] and 0.02 μg/ml, respectively. Chen requires just 9-36 percent of Bae's arsenic hexoxide dose to produce an acute effect on cells with arsenic trioxide. (Two percent of Bae's dose [0.1 μmoles per liter] is an […] cellular dose for arsenic trioxide.) For treating humans, Bae's prolonged daily exposure to arsenic hexoxide is 1818-times greater than […] effective cellular dose and 40,000-times greater than 50 ppb. Chen reports no human exposure data, but if he treated cancers in humans with an 1818-times greater daily dose of arsenic trioxide, that exposure would be 3600-14,400-times greater than this invention's 50 ppb or μg/L. Chen's ineffective dose would be 720-times greater than 50 μg/L.
# [2] = test system: acute prontyelocytic leukemia cells; details: acute treatment of cells; cited from earlier work
substance,measurement,setting,value
arsenic trioxide,"ineffective exposure, mass equivalent",[1],0.02 µg/mL
same,effective exposure range,[2],0.5-2.0 μmoles per liter
same,ineffective exposure,[2],0.1 μmoles per liter
